Key:
mammalian cells = experiment: Membrane permeability, shown by incubating cells with the dye and fluorescence imaging; assay type: cell-based; conditions: simple incubation with the dye
Experimental: (§1) As a representative example for the labeling of a SNAP-tag fusion with BG-Sir650, the labeling and fluorescence imaging of SNAP-Cep41 (microtubule binding protein) fusion protein in U2OS cells is described. SNAP-Cep41 was expressed from episomal pEBTet plasmid encoding puromycin resistance under a doxycycline inducible promoter in U2OS cells. Prior to induction of expression, cells were selected by growing them in complete Dulbecco's Modified Eagle's Medium (DMEM) with 1 μg/ml puromycin for at least 1.5 weeks. SNAP-Cep41 fusion protein expression was induced for 48 h by adding to complete DMEM grow medium doxycycline at final concentration of 0.1 μg/ml before staining procedure. Living cells were stained by replacing old media with complete DMEM growth media containing 5 μM BG-SiR650, and incubated for 30 min at 37° C. in 5% CO2 incubator. Cells were washed two times with Hank's Buffered Salt Solution (HBSS) for 5 min and once with media for 1 h. Before imaging, growth media was replaced with HBSS. Images (FIG. 2A) were acquired on a confocal fluorescence microscope as z-stacks and presented as maximum intensity projections. For the imaging of fixed cells, living cells were labeled with 1 μM BG-Sir650 for 30 min at 37° C. […] Images (FIG. 2B) were acquired on a confocal fluorescence microscope as z-stack and presented as maximum intensity projections. […]

SNAP-tag fusion proteins = experiment: Live cell labeling of SNAP-tag fusion proteins, fluorescence imaging; assay type: cell-based; conditions: living mammalian cells, incubation with dye
Experimental: as §1

## CN(C)c1ccc2c(c1)[Si](C)(C)C1=CC(=[N+](C)C)C=CC1=C2c1cc(C(=O)NCc2ccc(COc3nc(N)nc4[nH]cnc34)cc2)ccc1C(=O)[O-] [SiR650-6BG]
Mammalian cells
  membrane permeability: excellent membrane permeability
SNAP-tag fusion proteins
  specific labeling of SNAP-tag fusion proteins in living cells: permits the specific labeling of SNAP-tag fusion proteins

Reference: patent US9346957B2, “Cell permeable, fluorescent dye” (École Polytechnique Fédérale de Lausanne (EPFL), priority 2011, dated 2016)
